In PubChem BioAssay AID1963871 (Molecular Pharmacology Branch, DTP, NCI, 2024):

System: KRAS-mutant PDC multicell tumor spheroid viability
Assay: Anticancer human tumor 521955-158-R2-J5-PDC patient-derived pancreatic carcinoma cell line growth inhibition [KRAS2]
Conditions: for IC50: curve of first compound; for viability, T/C: stronger effect = lower value
Summary of the method: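 KRAS-mutant tumor cells were grown as spheroids with HUVEC endothelial cells and human MSCs as stroma. Targeted agents were tested alone and with KRAS pathway inhibitors. Doses started at or near clinical Cmax, or 10 microM, descending half-log.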

[1] = second compound 0.0316 µM, first compound 0.0316 µM
[2] = second compound 0.0316 µM, first compound 0.1 µM
[3] = second compound 0.0316 µM, first compound 0.316 µM
[4] = second compound 0.0316 µM, first compound 1 µM
[5] = second compound 0.0316 µM, first compound 3.16 µM
[6] = second compound 0.0316 µM, first compound 10 µM
[7] = second compound 0.1 µM, first compound 0.0316 µM
[8] = second compound 0.1 µM, first compound 0.1 µM
[9] = second compound 0.1 µM, first compound 0.316 µM
[10] = second compound 0.1 µM, first compound 1 µM
[11] = second compound 0.1 µM, first compound 3.16 µM
[12] = second compound 0.1 µM, first compound 10 µM
[13] = second compound 0.316 µM, first compound 0.0316 µM
[14] = second compound 0.316 µM, first compound 0.1 µM
[15] = second compound 0.316 µM, first compound 0.316 µM
[16] = second compound 0.316 µM, first compound 1 µM
[17] = second compound 0.316 µM, first compound 3.16 µM
[18] = second compound 0.316 µM, first compound 10 µM
[19] = second compound 1 µM, first compound 0.0316 µM
[20] = second compound 1 µM, first compound 0.1 µM
[21] = second compound 1 µM, first compound 0.316 µM
[22] = second compound 1 µM, first compound 1 µM
[23] = second compound 1 µM, first compound 3.16 µM
[24] = second compound 1 µM, first compound 10 µM
[25] = second compound 3.16 µM, first compound 0.0316 µM
[26] = second compound 3.16 µM, first compound 0.1 µM
[27] = second compound 3.16 µM, first compound 0.316 µM
[28] = second compound 3.16 µM, first compound 1 µM
[29] = second compound 3.16 µM, first compound 3.16 µM
[30] = second compound 3.16 µM, first compound 10 µM
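Also: viability read after seven days of drug exposure.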

Compound	IC50 (second compound 0.1 µM)	IC50 (second compound 0.316 µM)	IC50 (second compound 1 µM)	IC50 (second compound 3.16 µM)	viability, T/C [7]	viability, T/C [8]	viability, T/C [9]	viability, T/C [10]	viability, T/C [11]	viability, T/C [13]	viability, T/C [14]	viability, T/C [15]	viability, T/C [16]	viability, T/C [17]	viability, T/C [19]	viability, T/C [20]	viability, T/C [21]	viability, T/C [22]	viability, T/C [23]	viability, T/C [25]	further results
CC1OCC2(CCN(c3cnc(Sc4ccnc(N)c4Cl)c(N)n3)CC2)C1N (stereo not given) + C=CC(=O)N1CCN(c2nc(OCC3CCCN3C)nc3c2CCN(c2cccc4cccc(C)c24)C3)CC1CC#N	> 10000 nM	> 10000 nM	> 10000 nM	< 31.6 nM	99.8%	88.1%	74.5%	68.6%	63.3%	84.5%	84.4%	65.4%	59.2%	65.9%	84.8%	70.7%	59.2%	56.9%	57.4%	15.1%	IC50 (second compound 0.0316 µM): > 10000 nM; viability, T/C [1]: 92.9%; viability, T/C [2]: 79%; viability, T/C [3]: 75.2%; viability, T/C [4]: 63.5%; viability, T/C [5]: 60%; viability, T/C [6]: 70.8%; viability, T/C [12]: 66.6%; viability, T/C [18]: 58.4%; viability, T/C [24]: 55.5%; viability, T/C [26]: 13.1%; viability, T/C [27]: 15.4%; viability, T/C [28]: 13%; viability, T/C [29]: 5.45%; viability, T/C [30]: 5.43%
Cn1nccc1Nc1nccc(-c2cc3c(s2)C(C)(C)N(CCN2CCOCC2)C3=O)n1 + C=CC(=O)N1CCN(c2nc(OCC3CCCN3C)nc3c2CCN(c2cccc4cccc(C)c24)C3)CC1CC#N	546 nM	458 nM	170 nM	< 31.6 nM	98.2%	76.6%	57.1%	44.5%	23.8%	78.4%	81%	48.3%	41.9%	22.1%	75.5%	52.1%	41.6%	38%	23.3%	11.5%	IC50 (second compound 0.0316 µM): 657 nM; viability, T/C [1]: 100%; viability, T/C [2]: 95.3%; viability, T/C [3]: 64.3%; viability, T/C [4]: 40.6%; viability, T/C [5]: 29.7%; viability, T/C [6]: 19.1%; viability, T/C [12]: 17.1%; viability, T/C [18]: 16.8%; viability, T/C [24]: 17.9%; viability, T/C [26]: 10.4%; viability, T/C [27]: 6.73%; viability, T/C [28]: 1.86%; viability, T/C [29]: 0.55%; viability, T/C [30]: 0.33%
CC(=O)OC12COC1CC(O)C1(C)C(=O)C(O)C3=C(C)C(OC(=O)C(O)C(NC(=O)OC(C)(C)C)c4ccccc4)CC(O)(C(OC(=O)c4ccccc4)C21)C3(C)C (stereo not given) + CC1OCC2(CCN(c3cnc(Sc4ccnc(N)c4Cl)c(N)n3)CC2)C1N	< 10 nM	< 10 nM	< 10 nM	< 10 nM	15.3%	11.9%	14.5%	16.1%	19.7%	15.3%	14%	11.1%	17.7%	18.2%	13%	11.2%	13.1%	15.6%	20.7%	15.9%	IC50 (second compound 10 µM): < 10 nM; viability, T/C (second compound 0.1 µM, first compound 0.01 µM): 26.4%; viability, T/C (second compound 0.316 µM, first compound 0.01 µM): 25.1%; viability, T/C (second compound 1 µM, first compound 0.01 µM): 19.7%; viability, T/C (second compound 3.16 µM, first compound 0.01 µM): 21.2%; viability, T/C [26]: 14.5%; viability, T/C [27]: 12.7%; viability, T/C [28]: 19.5%; viability, T/C [29]: 23.2%; viability, T/C (second compound 10 µM, first compound 0.01 µM): 22.1%; viability, T/C (second compound 10 µM, first compound 0.0316 µM): 15.9%; viability, T/C (second compound 10 µM, first compound 0.1 µM): 15.2%; viability, T/C (second compound 10 µM, first compound 0.316 µM): 17.3%; viability, T/C (second compound 10 µM, first compound 1 µM): 14.6%; viability, T/C (second compound 10 µM, first compound 3.16 µM): 22.3%
